Where two headings read alike, the source gives them in different places.
What was measured:
[1] = test system: Puccinia triticina; experiment: Fungicidal activity: wheat brown rust (PUCCRT), percent disease control on wheat seedlings; assay type: in vivo; details: for pest or weed control at 100 ppm / pest or weed control at 121.5 g/ha: Puccinia triticina; for pest or weed control at 100 ppm / PUCCRT 3DC disease control rating / PUCCRT 1DP disease control rating: HV (high volume) activity at 100 ppm; for pest or weed control at 121.5 g/ha: LV (low volume) activity at 121.5 g/H
Protocol: Technical grades of materials were dissolved in acetone, which were then mixed with nine volumes of water containing 110 ppm Triton X-100. The fungicide solutions were applied onto wheat seedlings using an automated booth sprayer to run-off. All sprayed plants were allowed to air dry prior to further handling. All fungicides were evaluated using the aforementioned method for their activity vs. all target diseases, unless stated otherwise. Wheat leaf blotch and brown rust activity were also evaluated using track spray applications, in which case the fungicides were formulated as EC formulations, containing 0.1% Trycol 5941 in the spray solutions. Wheat plants (variety Yuma) were grown from seed in a greenhouse in 50% mineral soil/50% soil-less Metro mix until the first leaf was fully emerged, with 7-10 seedlings per pot. These plants were inoculated with an aqueous spore suspension of Puccinia triticina either prior to or after fungicide treatments. After inoculation the plants were kept in a dark dew room at 22° C. with 100% relative humidity overnight to permit spores to germinate and infect the leaf. The plants were then transferred to a greenhouse set at 24° C. for disease to develop. Fungicide formulation, application and disease assessment followed the procedures as described in the Example A. Results of the evaluations are shown below in Table 4.

[2] = test system: Zymoseptoria tritici; experiment: Fungicidal activity: leaf blotch of wheat (SEPTTR), percent disease control on wheat seedlings; assay type: in vivo; details: for pest or weed control at 100 ppm / pest or weed control at 121.5 g/ha: Zymoseptoria tritici; for pest or weed control at 100 ppm / SEPTTR 1DP disease control rating / SEPTTR 3DC disease control rating: HV (high volume) activity at 100 ppm; for pest or weed control at 121.5 g/ha: LV (low volume) activity at 121.5 g/H
Protocol: Technical grades of materials were dissolved in acetone, which were then mixed with nine volumes of water containing 110 ppm Triton X-100. The fungicide solutions were applied onto wheat seedlings using an automated booth sprayer to run-off. All sprayed plants were allowed to air dry prior to further handling. All fungicides were evaluated using the aforementioned method for their activity vs. all target diseases, unless stated otherwise. Wheat leaf blotch and brown rust activity were also evaluated using track spray applications, in which case the fungicides were formulated as EC formulations, containing 0.1% Trycol 5941 in the spray solutions. Wheat plants (variety Yuma) were grown from seed in a greenhouse in 50% mineral soil/50% soil-less Metro mix until the first leaf was fully emerged, with 7-10 seedlings per pot. These plants were inoculated with an aqueous spore suspension of Zymoseptoria tritici either prior to or after fungicide treatments. After inoculation the plants were kept in 100% relative humidity (one day in a dark dew chamber followed by two to three days in a lighted dew chamber at 20° C.) to permit spores to germinate and infect the leaf. The plants were then transferred to a greenhouse set at 20° C. for disease to develop. When disease symptoms were fully expressed on the 1st leaves of untreated plants, infection levels were assessed on a scale of 0 to 100 percent disease severity. Percent disease control was calculated using the ratio of disease severity on treated plants relative to untreated plants.

[3] = 24 h, 1 Day Protectant, read-out: PUCCRT 1DP disease control rating
[4] = 72 h, 3 Day Curative, read-out: PUCCRT 3DC disease control rating
[5] = 24 h, 1 Day Protectant, read-out: SEPTTR 1DP disease control rating
[6] = 72 h, 3 Day Curative, read-out: SEPTTR 3DC disease control rating

Compound	pest or weed control at 100 ppm [1, 3]	pest or weed control at 100 ppm [1, 4]	pest or weed control at 100 ppm [2, 5]	pest or weed control at 100 ppm [2, 6]	also measured
COc1ccnc(C(=O)N[C@@H](C)C(=O)O[C@@H](C)[C@H](Sc2cccc(Cl)c2)c2ccccc2)c1O [Compound 35]	> 80%	> 80%	≤ 80%	≤ 80%	
COc1ccnc(C(=O)N[C@@H](C)C(=O)O[C@@H](C)[C@H](Sc2ccc(C)cc2)c2ccccc2)c1O [Compound 36]	> 80%	> 80%	≤ 80%	≤ 80%	
COc1ccnc(C(=O)N[C@@H](C)C(=O)O[C@@H](C)[C@H](Sc2ccc(F)cc2)c2ccccc2)c1O [Compound 37]	≤ 80%	≤ 80%	≤ 0%	≤ 80%	
COc1ccnc(C(=O)N[C@@H](C)C(=O)O[C@@H](C)[C@H](Sc2ccc(F)cc2C)c2ccccc2)c1O [Compound 38]	> 80%		> 80%	> 80%	PUCCRT 3DC disease control rating ([1]; 3 Day Curative): A (>80)
COc1ccnc(C(=O)N[C@@H](C)C(=O)O[C@@H](C)[C@H](Sc2ccccc2)c2ccc(F)cc2)c1O [Compound 39]	> 80%	> 80%	> 80%	> 80%	
CCc1cc(F)ccc1[C@@H](Sc1ccccc1)[C@H](C)OC(=O)[C@H](C)NC(=O)c1nccc(OC)c1O [Compound 40]	> 80%		> 80%	> 80%	PUCCRT 3DC disease control rating ([1]; 3 Day Curative): A (>80)
COc1ccnc(C(=O)N[C@@H](C)C(=O)O[C@@H](C)[C@@H](c2ccccc2)S(=O)(=O)c2ccc(F)cc2)c1O [Compound 41]	≤ 0%	≤ 0%	≤ 80%	≤ 80%	
COc1ccnc(C(=O)N[C@@H](C)C(=O)O[C@@H](C)[C@@H](c2ccccc2)[S+]([O-])c2ccc(F)cc2)c1O (stereo partly drawn) [Compound 42]	≤ 0%	≤ 0%	≤ 0%	≤ 80%	
COc1ccnc(C(=O)N[C@@H](C)C(=O)O[C@@H](C)[C@H](Sc2ccc(C)cc2C)c2ccccc2)c1O [Compound 44]	> 80%	≤ 80%	> 80%	≤ 80%	
COc1ccnc(C(=O)N[C@@H](C)C(=O)O[C@@H](C)[C@H](SCc2ccccc2)c2ccccc2)c1O [Compound 45]	≤ 80%	≤ 80%	≤ 0%	≤ 80%	
COc1ccnc(C(=O)N[C@@H](C)C(=O)O[C@@H](C)[C@H](SC(C)C)c2ccccc2)c1O [Compound 46]	≤ 80%	≤ 80%	≤ 0%	> 80%	
COc1ccnc(C(=O)N[C@@H](C)C(=O)O[C@@H](C)[C@H](SCC(C)C)c2ccccc2)c1O [Compound 47]	≤ 80%	≤ 80%	≤ 0%	> 80%	
COc1ccnc(C(=O)N[C@@H](C)C(=O)O[C@@H](C)[C@@H](c2ccccc2)S(=O)(=O)Cc2ccccc2)c1O [Compound 48]	≤ 0%	≤ 0%	≤ 80%	≤ 80%	
COc1ccnc(C(=O)N[C@@H](C)C(=O)O[C@@H](C)[C@H](Sc2ccc(F)cc2C)c2ccc(F)cc2C)c1O [Compound 49]	> 80%	≤ 80%	> 80%	> 80%	
COc1ccnc(C(=O)N[C@@H](C)C(=O)O[C@@H](C)[C@H](Sc2ccccc2)c2ccc(F)cc2C)c1O [Compound 51]	> 80%	≤ 80%	> 80%	> 80%	
COc1ccnc(C(=O)N[C@@H](C)C(=O)O[C@@H](C)[C@H](Sc2ccc(C(F)(F)F)cn2)c2ccccc2)c1O [Compound 52]	≤ 80%	≤ 80%	≤ 0%	≤ 80%	
COc1ccnc(C(=O)N[C@@H](C)C(=O)O[C@@H](C)[C@H](Sc2ccccc2)c2ccc(C)cc2)c1O [Compound 53]	> 80%	> 80%	> 80%	> 80%	
COc1ccnc(C(=O)N[C@@H](C)C(=O)O[C@@H](C)[C@H](Sc2ccccc2)c2ccccc2)c1O [Compound 54]	> 80%	≤ 80%	≤ 80%	> 80%	
COc1ccnc(C(=O)N[C@@H](C)C(=O)O[C@@H](C)[C@H](Sc2ccc(F)cc2C)c2ccccc2)c1O [Compound 55]					PUCCRT 1DP disease control rating ([1]; 1 Day Protectant): A (>80); PUCCRT 3DC disease control rating ([1]; 3 Day Curative): D (≤0); SEPTTR 1DP disease control rating ([2]; 1 Day Protectant): A (>80); SEPTTR 3DC disease control rating ([2]; 3 Day Curative): B (≤80)
CCc1cc(F)ccc1[C@@H](Sc1ccccc1)[C@H](C)OC(=O)[C@H](C)NC(=O)c1nccc(OC)c1O [Compound 57]					PUCCRT 1DP disease control rating ([1]; 1 Day Protectant): A (>80); PUCCRT 3DC disease control rating ([1]; 3 Day Curative): D (≤0); SEPTTR 1DP disease control rating ([2]; 1 Day Protectant): B (≤80); SEPTTR 3DC disease control rating ([2]; 3 Day Curative): A (>80)
CCc1cc(F)ccc1[C@@H](Sc1ccccc1)[C@H](C)OC(=O)[C@H](C)NC(=O)c1nccc(OC)c1OC(C)=O [Compound 59]					pest or weed control at 121.5 g/ha [1, 3]: > 80%; pest or weed control at 121.5 g/ha [1, 4]: ≤ 80%; pest or weed control at 121.5 g/ha [2, 5]: ≤ 80%; pest or weed control at 121.5 g/ha [2, 6]: ≤ 80%
COc1ccnc(C(=O)N[C@@H](C)C(=O)O[C@@H](C)[C@H](Sc2ccc(F)cc2C)c2ccccc2)c1OC(C)=O [Compound 60]					pest or weed control at 121.5 g/ha [1, 3]: > 80%; pest or weed control at 121.5 g/ha [1, 4]: ≤ 80%; pest or weed control at 121.5 g/ha [2, 5]: > 80%; pest or weed control at 121.5 g/ha [2, 6]: ≤ 0%
COc1ccnc(C(=O)N[C@@H](C)C(=O)O[C@@H](C)[C@H](Sc2ccccc2)c2ccc(F)cc2)c1OC(C)=O [Compound 61]					pest or weed control at 121.5 g/ha [1, 3]: > 80%; pest or weed control at 121.5 g/ha [1, 4]: ≤ 80%; pest or weed control at 121.5 g/ha [2, 5]: ≤ 80%; pest or weed control at 121.5 g/ha [2, 6]: ≤ 0%
COc1ccnc(C(=O)N[C@@H](C)C(=O)O[C@@H](C)[C@@H](c2ccccc2)S(=O)(=O)Cc2ccccc2)c1OC(C)=O [Compound 72]					pest or weed control at 121.5 g/ha [1, 3]: ≤ 0%; pest or weed control at 121.5 g/ha [1, 4]: ≤ 0%; pest or weed control at 121.5 g/ha [2, 5]: ≤ 80%; pest or weed control at 121.5 g/ha [2, 6]: ≤ 0%
COc1ccnc(C(=O)N[C@@H](C)C(=O)O[C@@H](C)[C@@H](c2ccccc2)[S+]([O-])c2ccc(C)cc2C)c1OC(C)=O (stereo partly drawn) [Compound 73]					pest or weed control at 121.5 g/ha [1, 3]: ≤ 0%; pest or weed control at 121.5 g/ha [1, 4]: ≤ 0%; pest or weed control at 121.5 g/ha [2, 5]: ≤ 80%; pest or weed control at 121.5 g/ha [2, 6]: ≤ 0%
COc1ccnc(C(=O)N[C@@H](C)C(=O)O[C@@H](C)[C@@H](c2ccccc2)[S+]([O-])Cc2ccccc2)c1OC(C)=O (stereo partly drawn) [Compound 74]					pest or weed control at 121.5 g/ha [1, 3]: ≤ 0%; pest or weed control at 121.5 g/ha [1, 4]: ≤ 0%; pest or weed control at 121.5 g/ha [2, 5]: ≤ 0%; pest or weed control at 121.5 g/ha [2, 6]: ≤ 0%
COc1ccnc(C(=O)N[C@@H](C)C(=O)O[C@@H](C)[C@H](Sc2ccc(F)cc2)c2ccc(F)cc2C)c1OC(C)=O [Compound 75]					pest or weed control at 121.5 g/ha [1, 3]: ≤ 80%; pest or weed control at 121.5 g/ha [1, 4]: ≤ 0%; pest or weed control at 121.5 g/ha [2, 5]: > 80%; pest or weed control at 121.5 g/ha [2, 6]: > 80%
